Data taken from PubChem BioAssay (NCI).
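How tested: cells in 96-well plates exposed to compound for 48 hours at five concentrations. GI50 marks 50% less growth. TGI denotes the concentration required for complete inhibition of growth.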

Tests used:
Assay in all cases: DTP human tumour cell line panel, 48 h
[1] = test system: DLD-1 colon
[2] = test system: DMS 273 small cell lung
[3] = test system: HCT-15 colon
[4] = test system: HOP-92 NSCLC
[5] = test system: KM12 colon
[6] = test system: LOX IMVI melanoma
[7] = test system: SK-OV-3 ovarian
[8] = test system: NCI-H522 lung
[9] = test system: SR leukemia
[10] = test system: BT-549 breast

SMILES	TGI [1]	TGI [2]	TGI [3]	TGI [4]	TGI [5]	TGI [6]	TGI [7]	TGI [8]	TGI [9]	TGI [10]	GI50 [1]	GI50 [2]	GI50 [3]	GI50 [4]	GI50 [5]	GI50 [6]	GI50 [8]	GI50 [7]
C=C(C#N)C1OCC2OC(C)(C)OC21 (centres undefined)	34.4 µM	43.1 µM	35.3 µM	43.3 µM	> 100 µM	30.4 µM	> 100 µM	–	–	–	–	–	–	–	–	–	–	–
COc1ccc(/C(=N\NC(=O)C(=O)NN)C(c2ccc(OC)cc2)C2(O)C(=O)Nc3ccccc32)cc1 (centres undefined)	> 100 µM	> 100 µM	> 100 µM	> 100 µM	> 100 µM	–	> 100 µM	> 100 µM	> 100 µM	–	–	–	–	–	–	–	–	–
NC(=O)CCC(Nc1c2ccccc2nc2ccccc12)C(=O)O (centres undefined)	> 100 µM	> 100 µM	> 100 µM	> 100 µM	> 100 µM	> 100 µM	–	> 100 µM	> 100 µM	–	–	–	–	–	–	–	–	–
COc1ccc2c3c([nH]c2c1[N+](=O)[O-])C(C)N(Cc1ccc([N+](=O)[O-])cc1)CC3 (centres undefined)	–	27.8 µM	54.9 µM	–	49.6 µM	26.8 µM	–	20.8 µM	> 100 µM	–	–	–	–	–	–	–	–	–
C=C1C(=O)OC2C1CCC(C)C1C=CC(=O)C12C (centres undefined)	4.19 µM	23.5 µM	4.11 µM	13.3 µM	5.96 µM	5.25 µM	98.8 µM	2.39 µM	9.73 µM	3.46 µM	–	–	–	–	–	–	–	–
C#CCOCn1cnc2c(Sc3c([N+](=O)[O-])ncn3C)ncnc21	> 100 µM	> 100 µM	> 100 µM	> 100 µM	> 100 µM	> 100 µM	> 100 µM	> 100 µM	–	–	–	–	–	–	–	–	–	–
CCOC(=O)/C(=C\c1ccc(N(CCC#N)CCC#N)cc1)NC(=O)c1cc([N+](=O)[O-])ccc1Cl	> 100 µM	> 100 µM	> 100 µM	–	> 100 µM	> 100 µM	> 100 µM	> 100 µM	–	–	–	–	–	–	–	–	–	–
CC1=C[C@]2(O)C(=O)[C@H](C)C[C@H]3[C@@H](CC[C@@](C)(O)/C=C\2C1=O)C3(C)C	34.9 µM	52.3 µM	32.4 µM	48.2 µM	> 100 µM	34.6 µM	98 µM	26.7 µM	45.2 µM	–	–	–	–	–	–	–	–	–
Cn1nc(-c2ccccc2)c(C(=O)/C=C/c2ccc(Cl)cc2)c(N2CCCCC2)c1=O	7.08 µM	6.75 µM	15 µM	5.14 µM	–	6.09 µM	9.81 µM	4.26 µM	–	–	–	–	–	–	–	–	–	–
CC(=O)c1cccc(C)c1C(=O)O	> 100 µM	> 100 µM	> 100 µM	–	> 100 µM	> 100 µM	> 100 µM	> 100 µM	> 100 µM	–	–	–	–	–	–	–	–	–
CCOc1ccc(N=Cc2ccc3cc(C)ccc3n2)cc1	> 100 µM	> 100 µM	> 100 µM	> 100 µM	> 100 µM	> 100 µM	> 100 µM	> 100 µM	–	–	–	–	–	–	–	–	–	–
O=C1C=CC(=O)C12CCc1ccccc12	> 100 µM	> 100 µM	> 100 µM	> 100 µM	> 100 µM	> 100 µM	> 100 µM	33.2 µM	–	–	–	–	–	–	–	–	–	–
CC(C)(C)CC(C)(C)c1cc2c(O)c(c1)Cc1cc(C(C)(C)CC(C)(C)C)cc(c1O)Cc1cc(C(C)(C)CC(C)(C)C)cc(c1O)Cc1cc(C(C)(C)CC(C)(C)C)cc(c1O)Cc1cc(C(C)(C)CC(C)(C)C)cc(c1O)C2	> 100 µM	> 100 µM	> 100 µM	> 100 µM	> 100 µM	–	–	> 100 µM	–	–	–	–	–	–	–	–	–	–
CC(C)[O-].CC(C)[O-].O=C1C=C([O-])C(=O)c2ccccc21.O=C1C=C([O-])C(=O)c2ccccc21.[Ti+4]	> 100 µM	> 100 µM	> 100 µM	> 100 µM	> 100 µM	> 100 µM	> 100 µM	> 100 µM	–	–	> 100 µM	34.9 µM	> 73.4 µM	> 100 µM	> 81.4 µM	5.21 µM	39.9 µM	> 100 µM
CCN(CC)CCCNC(=O)C1COc2cc(-c3cc(=O)c4ccccc4o3)ccc2O1 (centres undefined)	> 100 µM	> 100 µM	> 100 µM	> 100 µM	–	48.2 µM	> 100 µM	> 100 µM	47.9 µM	–	–	–	–	–	–	–	–	–
CC(=O)OC1CCn2nnc(CO)c21 (centres undefined)	> 100 µM	> 100 µM	> 100 µM	> 100 µM	> 100 µM	–	> 100 µM	> 100 µM	> 100 µM	–	–	–	–	–	–	–	–	–
Cc1cccc(C)c1CO	> 100 µM	> 100 µM	> 100 µM	> 100 µM	> 100 µM	> 100 µM	> 100 µM	> 100 µM	> 100 µM	–	–	–	–	–	–	–	–	–
CCOC(=O)Cc1ccc2c(c1O)C(=O)c1c(ccc(CC(=O)OCC)c1O)C2=O	> 100 µM	> 100 µM	–	> 100 µM	> 100 µM	> 100 µM	> 100 µM	> 100 µM	> 100 µM	–	–	–	–	–	–	–	–	–
COc1ccc(C(=O)C(C(=O)CC(=O)Nc2cccc(C(F)(F)F)c2)c2ccc(OC)cc2)cc1 (centres undefined)	> 100 µM	> 100 µM	> 100 µM	> 100 µM	> 100 µM	–	> 100 µM	> 100 µM	> 100 µM	–	–	–	–	–	–	–	–	–
c1ccc2c(NCCCCCCNc3c4ccccc4nc4ccccc34)c3ccccc3nc2c1	3.29 µM	1.35 µM	16.7 µM	1.97 µM	1.81 µM	1.45 µM	4.31 µM	1.66 µM	0.991 µM	3.32 µM	–	–	–	–	–	–	–	–
CN1CC(=O)N(C)c2ncn(Cc3ccccc3)c2C1=O	> 100 µM	> 100 µM	> 100 µM	–	> 100 µM	> 100 µM	> 100 µM	–	> 100 µM	–	–	–	–	–	–	–	–	–
COC(=O)C1=C(O)c2cc(-c3ccccc3)c(-c3ccccc3)c(C#N)c2NC(=O)C1	> 100 µM	> 100 µM	> 100 µM	–	> 100 µM	–	–	–	> 100 µM	–	–	–	–	–	–	–	–	–
